Measured values reported in patent US11306098B2, “Substituted pyrrolo[1,2-a]pyrazines and pyrrolo[1,2-a][1,4]diazepines as TREX1 inhibitors” (VENENUM BIODESIGN, LLC, priority 2019, dated 2022).
Counter-ions that a name gives are not always drawn.

Experiments:
murine TREX1 = murine TREX1 (Mus musculus (Mouse), UniProt Q91XB0); test: TREX1 Exonuclease Assay (murine enzyme); assay type: biochemical; conditions: murine TREX1 1 nM, FAM/BHQ1-labeled DNA oligonucleotide
Protocol: (§1) The TREX1 Exonuclease assay is an exemplary in vitro assay for measuring the activity of the TREX1 inhibitors of the present invention. In this assay, TREX1 exonuclease activity was evaluated by measuring the increase in fluorescence resulting from TREX1-catalyzed removal of a quencher from the 3′ end of a FAM-labeled DNA oligonucleotide (5′FAM-CCA CGA GAG CGT-BHQ1-3′). The assay was conducted using Wild Type (WT) human or murine TREX1 enzyme constructs corresponding to amino acids 55-297 of UniProt ID Q9NSU2-1 (SEQ ID NO: 1), or amino acids 1-242 of UniProt ID Q91XB0-1 (SEQ ID NO: 2), respectively. See, e.g., Example A.
(§2) For human TREX1, the nucleotide sequence of the gene construct was codon optimized for expression in the bacterial host. The sequence was incorporated into the pMAL-c5e vector (NEB) downstream of a solubility-promoting MBP (maltose binding protein) fusion partner. The fusion protein product was expressed in E. coli strain BL21 (DE3) (Millipore) and purified in a series of chromatographic steps. Initial steps were conducted using a dextrin sepharose affinity column followed by a Q-sepharose ion exchange column (both GE Healthcare). After the second column the MBP partner was removed by incubation with enterokinase (NEB). Further purification was carried out with the second application of a Q-sepharose column followed by a Superdex 75 (GE Healthcare) size exclusion column. Finally, a heparin sepharose column (GE Healthcare) was applied to remove contaminating nucleotides. Similar methods were used in the preparation of the murine TREX1 enzyme and are described in Example B set forth below.
(§3) To evaluate the effect of compounds on TREX1 activity, test compounds were serially diluted (11-point, 3-fold) from 10 mM stock solutions and delivered to 384-well low-volume assay plates in 80 nL DMSO using an acoustic dispenser. Next, 4 μL of human TREX1 (0.5 nM), or murine TREX1 (1 nM), diluted in assay buffer (20 mM Tris pH 7.5, 5 mM MgCl2, 100 μg/mL BSA, 0.002% Triton X-100, 2 mM DTT), was added to the assay plate. After incubating for 30 minutes, 4 μL of labeled DNA oligonucleotide (500 nM) in assay buffer was added to initiate TREX1 exonuclease activity. The reaction was allowed to proceed for 45 minutes at room temperature prior to the addition of 4 μL of 150 mM EDTA to halt TREX1 activity. Assay plates were equilibrated for an additional 30 minutes and read on an EnVision Plate Reader (Perkin Elmer) to measure fluorescence emission at 535 nm following excitation at 485 nm. Fluorescence was plotted as a function of log molar compound concentration and fit to four-parameter dose-response equation to determine compound IC50.

human TREX1 = human TREX1 (Homo sapiens (Human), UniProt Q9NSU2); test: TREX1 Exonuclease Assay (human enzyme); assay type: biochemical; conditions: human TREX1 0.5 nM, FAM/BHQ1-labeled DNA oligonucleotide
Protocol: as §1, §2, §3

Chain of murine TREX1 (Q91XB0 1-242): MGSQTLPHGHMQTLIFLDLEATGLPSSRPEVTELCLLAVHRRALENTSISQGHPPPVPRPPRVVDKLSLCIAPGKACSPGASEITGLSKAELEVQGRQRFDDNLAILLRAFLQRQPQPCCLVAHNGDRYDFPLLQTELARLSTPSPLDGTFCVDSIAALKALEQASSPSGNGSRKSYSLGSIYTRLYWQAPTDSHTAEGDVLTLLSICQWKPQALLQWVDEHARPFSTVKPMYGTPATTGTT
Chain of human TREX1 (Q9NSU2 1-242): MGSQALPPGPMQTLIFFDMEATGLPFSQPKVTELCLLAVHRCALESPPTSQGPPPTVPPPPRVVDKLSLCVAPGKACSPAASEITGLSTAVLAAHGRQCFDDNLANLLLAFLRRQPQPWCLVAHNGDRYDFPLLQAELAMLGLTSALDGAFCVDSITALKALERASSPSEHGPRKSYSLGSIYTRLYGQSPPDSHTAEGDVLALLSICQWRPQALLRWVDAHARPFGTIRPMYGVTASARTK

Row | SMILES | IC50 (murine TREX1) | IC50 (human TREX1)
1 | N[C@@H]1C[C@H]2C(=O)N([C@H](CCC(=O)O)C(=O)NCc3ccc(C(F)(F)F)cc3)CCC(CCc3ccccc3)N2C1 (single isomer, unassigned) [Example 2A] | 10 to 100 µM | 10 to 100 µM
2 | C[C@H](C(=O)NCc1ccc(C(F)(F)F)cc1)N1CCC(CCc2ccccc2)N2C[C@H](N)C[C@H]2C1=O (some centres unmarked) [Example 5] | < 1 µM | < 1 µM
3 | CC(C)C[C@H](C(=O)NCc1ccc(C(F)(F)F)cc1)N1CCC(CCc2ccccc2)N2C[C@H](N)C[C@H]2C1=O (some centres unmarked) [Example 6] | < 1 µM | < 1 µM
4 | CC(C)C[C@H](C(=O)N(C)Cc1ccc(C(F)(F)F)cc1)N1CCC(CCc2ccccc2)N2C[C@H](N)C[C@H]2C1=O (some centres unmarked) [Example 7] | 1 to 9.99 µM | 1 to 9.99 µM
5 | CC(C)C[C@H](C(=O)NCc1ccccc1)N1CCC(CCc2ccccc2)N2C[C@H](N)C[C@H]2C1=O (some centres unmarked) [Example 8] | 10 to 100 µM | 1 to 9.99 µM
6 | Cc1ccc(CNC(=O)[C@@H](CC(C)C)N2CCC(CCc3ccccc3)N3C[C@H](N)C[C@H]3C2=O)cc1 (some centres unmarked) [Example 9] | 1 to 9.99 µM | 1 to 9.99 µM
7 | CC(C)C[C@H](C(=O)NCc1ccc(Cl)c(Cl)c1)N1CCC(Cc2ccccc2)N2C[C@H](N)C[C@H]2C1=O (some centres unmarked) [Example 10] | 1 to 9.99 µM | 1 to 9.99 µM
8 | CC(C)C[C@H](C(=O)NCc1ccc(Cl)c(Cl)c1)N1CCC(CCc2ccc(Cl)cc2)N2C[C@H](N)C[C@H]2C1=O (some centres unmarked) [Example 11] | 1 to 9.99 µM | < 1 µM
9 | CC(C)C[C@H](C(=O)NCC1CCCCC1)N1CCC(CCc2ccccc2)N2C[C@H](N)C[C@H]2C1=O (some centres unmarked) [Example 12] | 10 to 100 µM | 10 to 100 µM
10 | CC(C)C[C@H](C(=O)NCc1ccc(Cl)c(Cl)c1)N1CCC(C)N2C[C@H](N)C[C@H]2C1=O (some centres unmarked) [Example 13] | 10 to 100 µM | 10 to 100 µM
11 | N[C@@H]1C[C@H]2C(=O)N([C@H](CCC(=O)O)C(=O)NCc3ccc(Cl)c(Cl)c3)CCC(CCc3ccccc3)N2C1 (some centres unmarked) [Example 14A] | 10 to 100 µM | 10 to 100 µM
12 | N[C@@H]1C[C@H]2C(=O)N([C@H](CCC(=O)O)C(=O)NCc3ccc(Cl)c(Cl)c3)CCC(COc3ccccc3)N2C1 (some centres unmarked) [Example 17] | < 1 µM | < 1 µM
13 | CC(C)C[C@H](C(=O)NCc1ccc(Cl)c(Cl)c1)N1CCC(CSc2ccccc2)N2C[C@H](N)C[C@H]2C1=O (some centres unmarked) [Example 18] | < 1 µM | < 1 µM
14 | CC(C)C[C@H](C(=O)NCc1ccc(Cl)c(Cl)c1)N1CCC(COc2ccccc2)N2C[C@H](N)C[C@H]2C1=O (some centres unmarked) [Example 19] | 1 to 9.99 µM | < 1 µM
15 | CC(=O)N[C@@H]1C[C@H]2C(=O)N([C@H](CC(C)C)C(=O)NCc3ccc(Cl)c(Cl)c3)CCC(CCc3ccccc3)N2C1 (stereo partly drawn) [Example 20, (2R)-2-((8R,9aS)-8-acetamido-1-oxo-5-phenethylhexahydro-1H-pyrrolo[1,2-a][1,4]diazepin-2(3H)-yl)-N-(3,4-dichlorobenzyl)-4-methylpentanamide HCl] | 10 to 100 µM | 1 to 9.99 µM
16 | CC(C)C[C@H](C(=O)NCc1ccc(Cl)c(Cl)c1)N1CCC(CCc2ccccc2)N2C[C@H](N(C)C)C[C@H]2C1=O (stereo partly drawn) [Example 21, (2R)—N-(3,4-dichlorobenzyl)-2-((8R,9aS)-8-(dimethylamino)-1-oxo-5-phenethylhexahydro-1H-pyrrolo[1,2-a][1,4]diazepin-2(3H)-yl)-4-methylpentanamide HCl] | > 100 µM | 10 to 100 µM
17 | CC(C)C[C@H](C(=O)NCc1ccc(Cl)c(Cl)c1)N1CC(CCc2ccccc2)N2C[C@H](N)C[C@H]2C1=O (stereo partly drawn) [Example 22, (2R)-2-((7R,8aS)-7-amino-1-oxo-4-phenethylhexahydropyrrolo[1,2-a]pyrazin-2(1H)-yl)-N-(3,4-dichlorobenzyl)-4-methylpentanamide.HCl] | 10 to 100 µM | 10 to 100 µM
18 | CC(C)C[C@H](C(=O)NCCc1ccccc1)N1CCC(CCc2ccccc2)N2C[C@H](N)C[C@H]2C1=O (some centres unmarked) [Example 23] | 10 to 100 µM | 1 to 9.99 µM
19 | CC(C)C[C@H](C(=O)N[C@H](C)c1ccccc1)N1CCC(CCc2ccccc2)N2C[C@H](N)C[C@H]2C1=O (some centres unmarked) [Example 24] | 10 to 100 µM | 10 to 100 µM
